Experiments:
Carbonic anhydrase 9 = Carbonic anhydrase 9 (Homo sapiens, UniProt Q16790)
Carbonic anhydrase 1 = Carbonic anhydrase 1 (Homo sapiens, UniProt P00915)
Carbonic anhydrase 2 = Carbonic anhydrase 2 (Homo sapiens, UniProt P00918)
Carbonic anhydrase 12 = Carbonic anhydrase 12 (Homo sapiens, UniProt O43570)
Carbonic anhydrase 12, sequence (O43570 whole entry): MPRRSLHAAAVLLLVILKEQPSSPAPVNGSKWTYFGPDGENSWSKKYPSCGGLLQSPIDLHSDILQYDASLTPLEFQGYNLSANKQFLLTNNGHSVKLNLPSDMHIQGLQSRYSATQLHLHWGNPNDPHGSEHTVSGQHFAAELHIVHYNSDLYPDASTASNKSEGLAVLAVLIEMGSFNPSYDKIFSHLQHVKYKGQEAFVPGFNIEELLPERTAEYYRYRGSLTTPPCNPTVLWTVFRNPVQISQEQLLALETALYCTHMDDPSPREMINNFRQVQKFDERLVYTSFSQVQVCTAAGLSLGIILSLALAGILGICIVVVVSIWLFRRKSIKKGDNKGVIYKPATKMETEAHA

Carbonic anhydrase 1, sequence (P00915 whole entry): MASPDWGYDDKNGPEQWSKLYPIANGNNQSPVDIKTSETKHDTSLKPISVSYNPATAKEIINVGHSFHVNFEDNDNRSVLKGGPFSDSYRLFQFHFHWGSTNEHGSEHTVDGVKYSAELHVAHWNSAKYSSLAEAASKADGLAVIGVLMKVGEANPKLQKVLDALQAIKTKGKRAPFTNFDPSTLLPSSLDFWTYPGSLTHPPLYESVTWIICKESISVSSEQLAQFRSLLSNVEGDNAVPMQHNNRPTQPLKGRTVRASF

| Compound | Ki (Carbonic anhydrase 9) [µM] | Ki (Carbonic anhydrase 1) [µM] | Ki (Carbonic anhydrase 12) [µM] | Ki (Carbonic anhydrase 2) [µM] |
| --- | --- | --- | --- | --- |
| CCCC(=O)Nc1ccc(S(N)(=O)=O)cc1 | 0.083 |  |  |  |
| CCCCC(=O)Nc1ccc(S(N)(=O)=O)cc1 | 0.079 |  |  |  |
| NS(=O)(=O)c1ccc(CCNC(=S)Nc2ccccc2)cc1 | 0.021 | 0.05 | 0.024 | 0.053 |
| NS(=O)(=O)c1cccc(NC(=O)Nc2ccccc2)c1 | 0.014 | 1.5 | 0.01 |  |
| CC(C)(C)C(=O)Nc1ccc(S(N)(=O)=O)cc1 | 0.136 |  |  |  |
| CC(C)C(=O)Nc1ccc(S(N)(=O)=O)cc1 | 0.139 |  |  |  |

Now from value to compound, other results behind:

| Ki (Carbonic anhydrase 9) [µM] | Ki (Carbonic anhydrase 1) [µM] | Ki (Carbonic anhydrase 12) [µM] | Compound | Ki (Carbonic anhydrase 2) [µM] |
| --- | --- | --- | --- | --- |
|  | 0.037 | 0.079 | NS(=O)(=O)c1ccc(CCNC(=S)Nc2ccc(S(N)(=O)=O)cc2)cc1 | 0.004 |
| 0.037 |  |  | CC(=O)Nc1ccc(Nc2ccc(S(N)(=O)=O)cc2)cc1 |  |
|  |  | 0.049 | CC(=O)Nc1ccc(S(N)(=O)=O)cc1 |  |

Reference: ChEMBL document CHEMBL1143479, “Carbonic anhydrase inhibitors: inhibition of the tumor-associated isozymes IX and XII with a library of aromatic and heteroaromatic sulfonamides” (Bioorg Med Chem Lett, 2005)
